Measured values: ChEMBL document CHEMBL3745612, “Synthesis and biological evaluation of thiophene and benzo[b]thiophene analogs of combretastatin A-4 and isocombretastatin A-4: A comparison between the linkage positions of the 3,4,5-trimethoxystyrene unit” (Bioorg Med Chem Lett, 2016)

Tests used:
Tubulin = assay: Inhibition of Tubulin polymerization in human HeLa cells assessed as decrease in dynamic tyrosinated microtubules after 2 hrs by microplate reader analysis; type: cell-based
[1] = Antiproliferative activity against human IC8 cells after 72 hrs by MTT assay; type: functional, cell-based; settings: IC8, 72 h
[2] = Inhibition of sheep brain tubulin polymerization incubated at 37 degC for 10 mins and 0 degC for 5 mins by turbidimetry; design: species or system Ovis aries
MES-SA = assay: Antiproliferative activity against human MES-SA cells after 72 hrs by resazurin assay; type: functional, cell-based

## COc1cc(C(=O)c2cc3ccccc3s2)cc(OC)c1OC
Tubulin
  EC50: > 10000 nM

## COc1cc(/C=C\c2ccsc2)cc(OC)c1OC
Tubulin
  EC50: > 10000 nM

## COc1cc(/C=C/c2cc3ccccc3s2)cc(OC)c1OC
Tubulin
  EC50: 3180 nM

## COc1cc(/C=C\c2cc3ccccc3s2)cc(OC)c1OC
Tubulin
  EC50: 2600 nM
[1]
  IC50: 17 nM
[2]
  EC50: 80 nM
MES-SA
  IC50: 13 nM

## C=C(c1cc(OC)c(OC)c(OC)c1)c1csc2ccccc12
Tubulin
  EC50: 3900 nM

## COc1cc(/C=C\c2cccs2)cc(OC)c1OC
Tubulin
  EC50: > 10000 nM

## C=C(c1cc(OC)c(OC)c(OC)c1)c1cc2ccccc2o1
Tubulin
  EC50: > 10000 nM

## C=C(c1cc(OC)c(OC)c(OC)c1)c1cc2ccccc2s1
Tubulin
  EC50: 321 nM
[1]
  IC50: 101 nM
MES-SA
  IC50: 95 nM

## C=C(c1ccsc1)c1cc(OC)c(OC)c(OC)c1
Tubulin
  EC50: > 10000 nM

## COc1cc(/C=C\c2csc3ccccc23)cc(OC)c1OC
Tubulin
  EC50: 2430 nM
[1]
  IC50: 288 nM
MES-SA
  IC50: 191 nM

## COc1csc(/C=C\c2cc(OC)c(OC)c(OC)c2)c1
Tubulin
  EC50: 81 nM
[1]
  IC50: 27 nM
MES-SA
  IC50: 25 nM

## COc1cc(C(=O)c2csc3ccccc23)cc(OC)c1OC
Tubulin
  EC50: > 10000 nM

## C=C(c1cc(OC)c(OC)c(OC)c1)c1cccs1
Tubulin
  EC50: > 10000 nM

## COc1ccc(/C=C\c2cc(OC)c(OC)c(OC)c2)s1
Tubulin
  EC50: 1560 nM
[1]
  IC50: 76 nM
MES-SA
  IC50: 53 nM

## COc1cc2c(c(OC)c1OC)-c1ccc(OC)c(=O)cc1[C@@H](NC(C)=O)CC2 [COLCHICINE]
[1]
  IC50: 15 nM
MES-SA
  IC50: 15 nM

## COc1ccc(/C=C\c2cc(OC)c(OC)c(OC)c2)cc1O [COMBRETASTATIN A4]
[1]
  IC50: 4 nM
MES-SA
  IC50: 3 nM
